Measurements from US20240261236A1, “METHODS OF USING NMDA RECEPTOR ANTAGONISTS” (Seelos Therapeutics, Inc., priority 2021, published 2024).

Experiments:
[1] = test system: adults with major depressive disorder (MDD) who are at imminent risk of suicide; test: S-STS CMCM Risk of Suicide at Within the Next 7 Days; format: in vivo, human; conditions: 90 mg IN+SOC
Description: (§1) The S-STS CMCM (version 01/01/19) is a clinician-rated outcome measure which assesses SI/B on a standard 22-item scale, as well as multiple patient and clinician-rated items. The first 16 items are rated on a Likert-type scale ranging from “not at all” (0 units) to “extremely” (4 units), where select scoring (i.e., 4 specific items are scored based on the highest score on 2 of those items) yields a total score ranging from 0 units to 52 units. The final 6 items are used only when the patient misses a visit and is unable to complete the scale; if that missed visit is due to attempted or completed suicide, the possible maximum score is 100. The CMCM also yields 5 different single-item global assessments: 1) subject-rated likelihood of a suicide attempt; 2) subject-rated treatment needed; 3) clinician global severity of suicidal impulses, thoughts, and behaviors; 4) clinician judgment of suicide risk at this time and level of management needed for suicidality; and 5) clinician judgment of subject's likelihood of making a suicide attempt or of dying by suicide in the next 7 days.
(§2) The secondary endpoints are the change from baseline at 24 hours, as well as at Day 16, in the following: • (1) S-STS total score • (2) MADRS Total at Day 16 (only) • (3) Clinical Global Impression (CGI) of Severity for SI/B (CGIS-SI/B) and Change in SI/B (CGIC-SI/B) • (4) Patient Global Impression (PGI) of Severity for SI/B (PGIS-SI/B) and Change in SI/B (PGIC-SI/B • (5) S-STS Clinician-Rated Global Severity of Suicidal Impulses, Thoughts, and Behaviors • (6) S-STS Clinician judgment of subject's risk of a suicide attempt or death by suicide at this time • (7) S-STS Clinician judgment of subject's likelihood (risk) of making a suicide attempt or of dying by suicide in the next 7 days • (8) S-STS Subject-rated global severity of suicidal impulses, thoughts, and behavior • (9) S-STS Subject-rated treatment needed score • (10) MADRS item 10 response rate (response ≤3 units) • (11) MADRS Total response (total score ≥50% reduction from baseline) • (12) MADRS Total remission (total score ≤12 units)

[2] = test system: adults with major depressive disorder (MDD) who are at imminent risk of suicide; test: C-SSRS, Phase 2 Part 1; conditions: 90 mg IN+SOC; for C-SSRS score (yes or no) for suicidal ideation: 24 hours post-administration, baseline yes
[3] = test system: adults with major depressive disorder (MDD) who are at imminent risk of suicide; test: CADSS dissociation, Phase 2 Part 1
[4] = test system: adults with major depressive disorder (MDD) who are at imminent risk of suicide; test: S-STS CMCM total score, Phase 2 Part 1; format: in vivo, human; conditions: for S-STS CMCM score: 90 mg IN+SOC, 24 hours post-administration; for S-STS mean score: baseline 21.9
Description: as §1, §2
Subjects who were hospitalized due to an imminent risk of suicide were enrolled according to the inclusion criteria. The trial was initiated in the hospital and all subjects received standard of care (SOC) therapy for the duration of the study. Subjects were released from the hospital (approximately Day 7) once stabilized and continued the study in an outpatient manner. […] Following the conclusion of the treatment period, a 2-week safety follow-up was also conducted to determine maintenance of treatment efficacy and to monitor for any additional safety events. See, FIG. 26.

[5] = test system: adults with major depressive disorder (MDD) who are at imminent risk of suicide; test: Treatment-emergent adverse events, Phase 2 Part 1

SMILES: CNC1(c2ccccc2Cl)CCCCC1=O (racemic) [intranasal racemic ketamine, 1:1 mixture of the two enantiomers of ketamine: (R)-2-(2-chlorophenyl)-2-(methylamino)cyclohexanone and (S)-2-(2-chlorophenyl)-2-(methylamino)cyclohexanone]
- S-STS CMCM Risk of Suicide at Within the Next 7 Days score ([1]; Subject 1, 24 hours post-administration, from 5 units, range 1-10): 2 units
- S-STS CMCM Risk of Suicide at Within the Next 7 Days score ([1]; Subject 2, 24 hours post-administration, baseline 7 units): 1 unit
- S-STS CMCM Risk of Suicide at Within the Next 7 Days score ([1]; the scores (Subjects 1 and 2), Day 4): 1 unit
- S-STS CMCM Risk of Suicide at Within the Next 7 Days score ([1]; the scores (Subjects 1 and 2), Day 8): 0 units
- C-SSRS score (yes or no) for suicidal ideation ([2]; Subject 1): no
- C-SSRS score (yes or no) for suicidal ideation ([2]; Subject 2): no
- C-SSRS scores for suicidal ideation and suicidal behavior ([2]; both subjects, remainder of the study): no
- CADSS score ([3]; 90 mg IN+SOC, Subject 1, all assessments, threshold for dissociation >4 units): zero
- CADSS score ([3]; 90 mg IN+SOC, Subject 2, 40 minutes post-administration): 2 units
- CADSS score ([3]; 90 mg IN+SOC, Subject 2, 1 hour post-administration): zero
- clinically relevant dissociation ([3]; 90 mg IN+SOC, Subjects 1 and 2): neither subject exhibited clinically relevant dissociation
- clinically meaningful sedation or dissociation ([3]; 90 mg IN+SOC, entire patient cohort to the Day 29/30 endpoint): no clinically meaningful sedation or dissociation
- CADSS change from baseline (at 40 minutes) ([3]; Day 4 (after second dose)): 2.3
- CADSS change from baseline (at 40 minutes) ([3]; Day 8 (after third dose)): 0.4
- subjects with no dissociation (total CADSS score >4 units = dissociation) ([3]; Days 1 and 4): four
- subjects reporting dissociation ([3]; after Day 4 (on Day 11 at 40 minutes), 7 subjects): 1 subject
- CADSS change from baseline (at 40 minutes) ([3]; after first dose): 3.8
- S-STS CMCM score ([4]; Subject 1, from 18 units, range 0-52): zero
- S-STS CMCM score ([4]; Subject 2, from 22 units): 3 units
- S-STS CMCM mean (SD) change from baseline ([4]; 17 subjects enrolled, 24 hours post-dose): −20.6 (6.34)
- S-STS CMCM mean (SD) change from baseline ([4]; 17 subjects enrolled, Day 16): −20.9 (3.66)
- S-STS: patients (1 patient) with 4 points within-patient change ([4]; Day 1): 6%
- S-STS: patients with >14 points within-patient change from baseline ([4]; Day 1): 94%
- S-STS mean score ([4]; Day 1): 1.7
- S-STS mean score ([4]; Day 16): 0.0
- S-STS mean score ([4]; Day 29): 0.0
- S-STS CMCM mean (SD) change from baseline ([4]; final follow-up on Day 29/30): −21.1 (3.71)
- mean S-STS CMCM score ([4]; final follow-up on Day 29/30): 0.0 (0.00)
- serious adverse events ([5]; 90 mg IN+SOC, Part 1): no serious adverse events
- severity of adverse events ([5]; 90 mg IN+SOC, Part 1): mild or moderate
- subjects who experienced a treatment-emergent adverse event (TEAE) ([5]; 17 subjects): 47%
- tolerability ([5]; Part 1): well tolerated
- vital sign or blood pressure-related AEs ([5]; Part 1): no vital sign or blood pressure-related AEs were reported
- TEAE feeling abnormal ([5]; n=2): 11.8%
- TEAE nausea ([5]; n=2): 11.8%
- TEAE sedation ([5]; n=2): 11.8%
- TEAE dizziness ([5]; n=3): 17.6%
- TEAE headache ([5]; n=4): 23.5%
